# Experimental data as given in ChEMBL document CHEMBL1156879, “Ganodermasides A and B, two novel anti-aging ergosterols from spores of a medicinal mushroom Ganoderma lucidum on yeast via UTH1 gene” (Bioorg Med Chem, 2010).
# The source made the active and inactive calls. The calls are words filed in the database; no cut-off is given here.
# Assays:
# Format in all cases: functional, organism-based
# Saccharomyces cerevisiae [1] = test: Antiaging effect in Saccharomyces cerevisiae K6001 assessed as extension of replicative life span after 2 days
# Saccharomyces cerevisiae [2] = test: Antiaging effect in Saccharomyces cerevisiae K6001 assessed as extension of replicative life span at 10 uM after 2 days
# Saccharomyces cerevisiae [3] = test: Antiaging effect in Saccharomyces cerevisiae K6001 expressing skn7 mutant assessed as extension of replicative life span after 2 days
# Saccharomyces cerevisiae [4] = test: Antiaging effect in Saccharomyces cerevisiae K6001 expressing uth1 mutant assessed as extension of replicative life span after 2 days
# Saccharomyces cerevisiae [5] = test: Effect on SOD1 gene expression in Saccharomyces cerevisiae K6001 at 10 uM by RT-PCR
# Saccharomyces cerevisiae [6] = test: Effect on SOD2 gene expression in Saccharomyces cerevisiae K6001 at 10 uM by RT-PCR
# Saccharomyces cerevisiae [7] = test: Effect on SIRT1 expression in Saccharomyces cerevisiae K6001 by SIRT1/Sir2 deacetylase fluorometric assay
Activity (Saccharomyces cerevisiae [7]),SMILES,Activity (Saccharomyces cerevisiae [1]),Activity (Saccharomyces cerevisiae [2]),Activity (Saccharomyces cerevisiae [3]),Activity (Saccharomyces cerevisiae [4]),Activity (Saccharomyces cerevisiae [5]),Activity (Saccharomyces cerevisiae [6])
–,Oc1ccc(/C=C/c2cc(O)cc(O)c2)cc1,Dose-dependent effect,Active,–,–,–,–
inactive,CC(C)[C@@H](C)/C=C/[C@@H](C)[C@H]1C[C@@H](O)C2=C3C=CC4=CC(=O)CC[C@]4(C)C3CC[C@@]21C (some centres undefined),–,Active,inactive,inactive,inactive,inactive
inactive,CC(C)[C@@H](C)/C=C/[C@@H](C)[C@H]1C[C@H](O)C2=C3C=CC4=CC(=O)CC[C@]4(C)C3CC[C@@]21C (some centres undefined),–,Active,inactive,inactive,inactive,inactive
